In publication PMC10892375, “Determination of the Cannabinoid CB1 Receptor’s Positive Allosteric Modulator Binding Site through Mutagenesis Studies” (Pharmaceuticals, 2024):
Entries after “also recorded” stand apart in the source; their conditions may differ.

How the values were obtained:
Type in all cases: cell-based
WT hCB1 = target: T1, WT hCB1 (Homo sapiens, UniProt P21554); assay: pIRES G protein dissociation BRET assay, WT hCB1; conditions: for Allosteric modulation of maximal CP55940-induced G protein dissociation / Effect on the potency of CP55940-induced G protein dissociation: 10 μM allosteric ligand; for Allosteric modulation of maximal CP55940-induced G protein dissociation / Effect on the potency of CP55940-induced G protein dissociation / Allosteric agonism: G protein dissociation in the absence of an orthosteric ligand: result in words; for G protein dissociation, AUC of 10 μM compound (maximal response): 10 μM ligand alone
T1 construct: expressed in transfected cells; host or cells: HEK293
Description: (§1) Mutagenesis studies using the pIRES G protein dissociation assay were performed using human embryonic kidney 293 (HEK293) wild-type cells transiently transfected with pplss-3HA-hCB1 [31] or modified receptor. All cells were cultured in Dulbecco’s Modified Eagle’s Medium (DMEM) supplemented with 10% fetal bovine serum (FBS), grown in […] vented-cap flasks, and maintained in a 37° C incubator at 5% CO2.
(§2) Dissociation of the G protein heterotrimer, specifically Gαi1, Gβ1, and Gγ2, was investigated using a bioluminescence resonance energy transfer (BRET) assay with the pIRES biosensor first described by and adapted by.
(§3) Briefly, 3 × 10^6 WT HEK293 cells were seeded into 10 cm culture dishes (Corning, Corning, NY, USA; one dish for the control receptor and one for each modified receptor) and incubated at 37 °C for 24 h to gain 50–60% confluency. Culture medium was then replaced and transfection mixtures containing 3 μg pIRES vector and 1 μg receptor (either pplss-hCB1 or modified receptor) were prepared (4 μg total DNA). Plasmids were initially diluted in sterile Milli-Q water before being diluted in OptiMEM reduced serum medium (Thermo Fisher Scientific, Waltham, MA, USA) and combined with […] polyethylenimine (PEI)-max (1:9 DNA:PEI-max ratio) and incubated at room temperature for 20 min. Transfection mixtures were then added to cells via dropwise addition, and cells were incubated at 37 °C for 24 h. Transfected cells were lifted and plated at 50,000 cells/well into poly-d-lysine (PDL; Sigma-Aldrich) coated white 96-well CulturPlates (PerkinElmer, Waltham, MA, USA) and incubated for a further 24 h at 37 °C.
To assay, the culture medium was aspirated and cells were washed with phosphate buffered saline (PBS) and replaced with BRET assay medium (phenol red free DMEM containing 25 mM HEPES and supplemented with 1 mg/mL bovine serum albumin; BSA, MP Biomedicals, Auckland, New Zealand) for 30 min prior to drug addition (serum starve). Drugs were prepared at 10 × concentration in BRET assay medium, combined in a polypropylene V-bottom plate, and incubated at 37° C prior to drug stimulation. Coelenterazine-h (Nanolight Technology, Prolume Ltd, Pinetop, AZ, USA) was prepared at 10 × concentration in BRET assay medium (final concentration 5 μM) and dispensed to cells immediately prior to drug stimulation. Plates were transferred to the LUMIstar Omega plate reader (BMG Labtech GmbH, Ortenburg, BW, Germany) and luminescence (475 and 535 nm) was detected simultaneously in the dark with BRET1 filters for approximately 5 min to establish a baseline BRET ratio. Drugs were added to cells, plates were returned to the LUMIstar and luminescence was detected for a further 25 min. BRET ratios (475/535) were calculated in Omega MARS software v 3.32, exported, and data were analysed using GraphPad Prism v8. Baseline correction was performed using an in-built function in GraphPad Prism, subtracting vehicle BRET ratios from matched conditions. Area under the curve (AUC) analysis was performed in GraphPad Prism using an in-built function to obtain concentration response data.
All data analysis was performed using GraphPad Prism v8. Sigmoidal concentration series were generated by performing AUC analysis and fit using three-parameter nonlinear regression curves. Statistical analyses were performed using data interpolated from nonlinear regression curves using parameters derived from five independent biological replicates. Both one- and two-way repeated measures ANOVA and paired t-tests were used where appropriate (specified in-text), and posthoc tests, specified in text, were performed when significance was reached (p < 0.05). Time course data presented in this manuscript are pooled data (n = 5) and expressed as mean ± SEM. Concentration response data are representative, data expressed as mean ± SD from technical triplicates, to avoid misestimation of parameters from combined/pooled data.

hCB1 mutant F289A^5.53 = target: T2, hCB1 mutant F289A^5.53 (Homo sapiens, UniProt P21554, F289A); assay: pIRES G protein dissociation BRET assay, F289A mutant; conditions: for G protein dissociation, AUC of 10 μM compound (maximal response): 10 μM ligand alone
T2 construct: expressed in transfected cells; host or cells: HEK293
Description: as §1
(§4) Mutants of pplss-3HA-hCB1 (WT, pEF-V4-HisA (pEF4a) construct) were generated using a modified QuikChange® (Stratagene, San Diego, CA, USA) site-directed mutagenesis approach using KAPA HiFi Hotstart Polymerase (KAPA Biosystems, Roche, Basel, Switzerland). Briefly, single-stranded primers used to modify one or two base pairs within the target amino acid using PCR were purchased from Integrated DNA Technologies (IDT, Coralville, IA, USA). All pplss-hCB1 mutants were generated using the pplss-3HA-hCB1 pEF4a as parental DNA. PCR products were generated using recommended cycling conditions and treated with Dpn1 (New England Biolabs, Ipswich, MA, USA) overnight at 37° C to digest methylated parental DNA. PCR products were electrophoresed and run on an agarose gel (1% (w.v^−1) agarose, HydraGene, Piscataway, NJ, USA) containing 0.25 μg/mL ethidium bromide (Sigma-Aldrich, St. Louis, MO, USA). Gels were run in 40 mM TRIS-acetate buffer containing […] (pH 8.3) at 100 V for 30 min, maximum current and included a 1kb+ DNA ladder (Invitrogen, Thermo Fisher Scientific, Carlsbad, CA, USA) for reference. Gels were imaged using an UVTech Alliance Q9 Mini transilluminator (UVTech Alliance, Cambridge, UK). Digested products were then used to transform NEB 5α competent E. coli cells in accordance with manufacturer’s instructions. Briefly, transformed PCR products were grown overnight on 8.5 mL Luria Broth agar plates (containing 100 μg/mL ampicillin) at 37° C. Single bacterial colonies were picked and inoculated in Luria Broth (containing 100 μg/mL ampicillin) and grown overnight in a shaking incubator at 37° C. Plasmids were then harvested and purified using a Qiagen miniprep kit (Qiagen, Hilden, Germany) and validated using sequencing (Genetics Analysis Service, University of Otago, Dunedin, New Zealand).
as §2, §3
(§5) To assay, the culture medium was aspirated and cells were washed with phosphate buffered saline (PBS) and replaced with BRET assay medium (phenol red free DMEM containing 25 mM HEPES and supplemented with 1 mg/mL bovine serum albumin; BSA, MP Biomedicals, Auckland, New Zealand) for 30 min prior to drug addition (serum starve). Drugs were prepared at 10 × concentration in BRET assay medium, combined in a polypropylene V-bottom plate, and incubated at 37° C prior to drug stimulation.

hCB1 mutant R148A^12.51 = target: T3, hCB1 mutant R148A^12.51 (Homo sapiens, UniProt P21554, R148A); assay: pIRES G protein dissociation BRET assay, R148A mutant; conditions: for Increase in the potency of CP55940-induced G protein dissociation: 10 μM allosteric ligand; for G protein dissociation, AUC of 10 μM compound (maximal response): 10 μM ligand alone
T3 construct: expressed in transfected cells; host or cells: HEK293
Description: as §1, §4, §2, §3, §5

hCB1 mutant I169A^2.56 = target: T4, hCB1 mutant I169A^2.56 (Homo sapiens, UniProt P21554, I169A); assay: pIRES G protein dissociation BRET assay, I169A mutant; conditions: for Allosteric modulation of CP55940 (PAM activity): 10 μM allosteric ligand; for Allosteric modulation of CP55940 (PAM activity) / Allosteric agonism: G protein dissociation in the absence of an orthosteric ligand: result in words; for G protein dissociation, AUC of 10 μM compound (maximal response): 10 μM ligand alone; for Allosteric agonism: G protein dissociation in the absence of an orthosteric ligand: 10 μM
T4 construct: expressed in transfected cells; host or cells: HEK293
Description: as §1, §4, §2, §3, §5

[1] = 10 μM CP55940 in the presence of 10 μM ZCZ011
[2] = in the presence of 10 μM GAT228
[3] = in the presence of 10 μM GAT229
[4] = top of the curve (maximal response)

T2 sequence (P21554 whole entry F289A): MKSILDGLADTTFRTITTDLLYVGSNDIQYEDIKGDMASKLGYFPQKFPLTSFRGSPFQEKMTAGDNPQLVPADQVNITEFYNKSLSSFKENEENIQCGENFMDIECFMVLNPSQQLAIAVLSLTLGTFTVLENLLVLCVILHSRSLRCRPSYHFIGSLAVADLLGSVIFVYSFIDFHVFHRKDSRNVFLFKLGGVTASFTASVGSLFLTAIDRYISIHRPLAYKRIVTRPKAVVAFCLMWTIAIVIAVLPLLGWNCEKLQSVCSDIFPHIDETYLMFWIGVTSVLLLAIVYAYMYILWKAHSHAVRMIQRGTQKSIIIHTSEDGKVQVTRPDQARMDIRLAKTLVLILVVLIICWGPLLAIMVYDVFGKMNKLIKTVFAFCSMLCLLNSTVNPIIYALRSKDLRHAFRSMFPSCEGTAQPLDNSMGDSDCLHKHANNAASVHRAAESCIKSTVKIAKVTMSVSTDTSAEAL
T1 sequence (P21554 whole entry): as the sequence (P21554 whole entry F289A) above, with A289F counted along it
T3 sequence (P21554 whole entry R148A): as the sequence (P21554 whole entry F289A) above, with R148A, A289F counted along it
T4 sequence (P21554 whole entry I169A): as the sequence (P21554 whole entry F289A) above, with I169A, A289F counted along it

O=[N+]([O-])C[C@@H](c1ccccc1)c1c(-c2ccccc2)[nH]c2ccccc12 [GAT229]
Allosteric modulation of maximal CP55940-induced G protein dissociation (WT hCB1): increased maximal CP55940-induced G protein dissociation | Effect on the potency of CP55940-induced G protein dissociation (WT hCB1): Neither GAT229 nor GAT228 increased the potency | G protein dissociation, AUC of 10 μM compound (maximal response) (WT hCB1): −148.6 ± 7.2 | Allosteric agonism: G protein dissociation in the absence of an orthosteric ligand (WT hCB1): increased wild-type G protein dissociation | G protein dissociation, AUC of 10 μM compound (maximal response) (hCB1 mutant F289A^5.53): −123.6 ± 5.9 | Increase in the potency of CP55940-induced G protein dissociation (hCB1 mutant R148A^12.51): less than 0.5 log units | G protein dissociation, AUC of 10 μM compound (maximal response) (hCB1 mutant R148A^12.51): −148.5 ± 7.7 | Allosteric modulation of CP55940 (PAM activity) (hCB1 mutant I169A^2.56): neither allosteric ligand acted as a PAM | G protein dissociation, AUC of 10 μM compound (maximal response) (hCB1 mutant I169A^2.56): 54.8 ± 7.5 | Allosteric agonism: G protein dissociation in the absence of an orthosteric ligand (hCB1 mutant I169A^2.56): abolished; also recorded: inhibited constitutive G protein dissociation

O=[N+]([O-])C[C@H](c1ccccc1)c1c(-c2ccccc2)[nH]c2ccccc12 [GAT228]
Allosteric modulation of maximal CP55940-induced G protein dissociation (WT hCB1): did not alter CP55940-induced G protein dissociation | Effect on the potency of CP55940-induced G protein dissociation (WT hCB1): small but significant decrease in the potency of CP55940 | G protein dissociation, AUC of 10 μM compound (maximal response) (WT hCB1): −105.7 ± 7.2 | Allosteric agonism: G protein dissociation in the absence of an orthosteric ligand (WT hCB1): increased wild-type G protein dissociation | G protein dissociation, AUC of 10 μM compound (maximal response) (hCB1 mutant F289A^5.53): −97.4 ± 7.2 | Increase in the potency of CP55940-induced G protein dissociation (hCB1 mutant R148A^12.51): less than 0.5 log units | G protein dissociation, AUC of 10 μM compound (maximal response) (hCB1 mutant R148A^12.51): −102.7 ± 11.8 | G protein dissociation, AUC of 10 μM compound (maximal response) (hCB1 mutant I169A^2.56): 30.0 ± 5.9 | Allosteric agonism: G protein dissociation in the absence of an orthosteric ligand (hCB1 mutant I169A^2.56): abolished; also recorded: inhibited constitutive G protein dissociation

Cc1ccc2c(C(C[N+](=O)[O-])c3cccs3)c(-c3ccccc3)[nH]c2c1 (stereo not shown) [ZCZ011, 6-Methyl-3-(2-nitro-1-(thiophen-2-yl)ethyl)-2-phenyl-1 H-indole]
Allosteric modulation of maximal CP55940-induced G protein dissociation (WT hCB1): increased maximal CP55940-induced G protein dissociation | G protein dissociation, AUC of 10 μM compound (maximal response) (WT hCB1): −167.3 ± 3.2 | Allosteric agonism: G protein dissociation in the absence of an orthosteric ligand (WT hCB1): increased wild-type G protein dissociation | G protein dissociation, AUC of 10 μM compound (maximal response) (hCB1 mutant F289A^5.53): −135.5 ± 6.3 | G protein dissociation, AUC of 10 μM compound (maximal response) (hCB1 mutant R148A^12.51): −150.1 ± 10.2 | Allosteric modulation of CP55940 (PAM activity) (hCB1 mutant I169A^2.56): neither allosteric ligand acted as a PAM | G protein dissociation, AUC of 10 μM compound (maximal response) (hCB1 mutant I169A^2.56): −20.0 ± 9.0 | Allosteric agonism: G protein dissociation in the absence of an orthosteric ligand (hCB1 mutant I169A^2.56): abolished; also recorded: substantial reduction in G protein dissociation

CCCCCCC(C)(C)c1ccc([C@@H]2C[C@H](O)CC[C@H]2CCCO)c(O)c1 [CP55940]
G protein dissociation, AUC, 10 μM CP55940 + 10 μM ZCZ011 (WT hCB1; [1]): −215.9 ± 2.9 | EMAX, CP55940 + 10 μM GAT228 (WT hCB1; [2]): −194.2 ± 7.3 ∆BRET.sec | EMAX, CP55940 + 10 μM GAT229 (WT hCB1; [3]): −205.1 ± 7.8 ∆BRET.sec | EMAX, CP55940 Alone (WT hCB1; [4]): −184.1 ± 3.8 ∆BRET.sec | G protein dissociation, AUC, 10 μM CP55940 + 10 μM ZCZ011 (hCB1 mutant F289A^5.53; [1]): −167.8 ± 6.9 | EMAX, CP55940 + 10 μM GAT228 (hCB1 mutant F289A^5.53; [2]): −156.7 ± 5.3 ∆BRET.sec | EMAX, CP55940 + 10 μM GAT229 (hCB1 mutant F289A^5.53; [3]): −161.1 ± 6.5 ∆BRET.sec | EMAX, CP55940 Alone (hCB1 mutant F289A^5.53; [4]): −145.4 ± 5.7 ∆BRET.sec | G protein dissociation, AUC, 10 μM CP55940 + 10 μM ZCZ011 (hCB1 mutant R148A^12.51; [1]): −237.3 ± 11.6 | EMAX, CP55940 + 10 μM GAT228 (hCB1 mutant R148A^12.51; [2]): −218.2 ± 8.5 ∆BRET.sec | EMAX, CP55940 + 10 μM GAT229 (hCB1 mutant R148A^12.51; [3]): −243.9 ± 5.4 ∆BRET.sec | EMAX, CP55940 Alone (hCB1 mutant R148A^12.51; [4]): −175.6 ± 11.4 ∆BRET.sec | G protein dissociation, AUC of 10 μM compound (maximal response) (hCB1 mutant I169A^2.56): −113.1 ± 11.7 | EMAX, CP55940 + 10 μM GAT228 (hCB1 mutant I169A^2.56; [2]): −117.0 ± 7.4 ∆BRET.sec | EMAX, CP55940 + 10 μM GAT229 (hCB1 mutant I169A^2.56; [3]): −109.7 ± 8.3 ∆BRET.sec | EMAX, CP55940 Alone (hCB1 mutant I169A^2.56; [4]): −110.7 ± 10.3 ∆BRET.sec
